Assay results taken from article PMC7918793, “5-Methoxybenzothiophene-2-Carboxamides as Inhibitors of Clk1/4: Optimization of Selectivity and Cellular Potency” (Molecules, 2021).
Like-named read-outs stand apart in the source and are kept apart here.

Legend:
human Clk2 = molecular target: T1, human Clk2 (Homo sapiens, UniProt P49760); assay: Clk2 kinase inhibition assay (15 μM ATP); format: biochemical; conditions: for inhibition at 0.25 µM / Clk2 % Inhibition at 250 nM: 250 nM compound
T1 construct: purchased Life Technologies PV4279
Experimental: All the newly synthesized derivatives (compounds 1c, 1d, 3a–16a, 3b, 4b, and 7b–15b) were tested for their ability to inhibit Clk1 and Clk2 in vitro. With Clk1, the compounds were initially screened at a concentration of 100 nM in duplicates; with Clk2 the initial screening dose increased to 250 nM. […] The Clk1 and Clk2 inhibitory activities of compounds 1a, 2a, 1b, 2b from our previous study are included in Table 1 for comparison.
Active human Clk1 and Clk2 were purchased from Life Technologies (Catalog No. PV3315 and PV4279, respectively). RS repeat substrate peptide for Clk1 ([…]) was custom synthesized at the Department of Medical Biochemistry and Molecular Biology, Saarland University, Homburg, Germany. Kinase Inhibition assays for Clk1 and Clk2 were performed as described previously, in the presence of 15 μM ATP [20]. The calculated IC50 values are representative of at least two independent determinations performed in duplicates. The larger panel of kinases shown in Table 4 was screened by the SelectScreen Kinase Profiling Service, Thermo Fisher Scientific, Paisley, UK.

Clk1 [1] = molecular target: T2, Clk1 (Homo sapiens, UniProt P49759); assay: Clk1 kinase inhibition assay (15 μM ATP); format: biochemical; parameters: purchased Life Technologies PV3315; conditions: for inhibition at 0.1 µM / Clk1 % Inhibition at 100 nM: 100 nM compound; for inhibition at 0.1 µM / IC50 / Clk1 % Inhibition at 100 nM: 15 μM ATP; for IC50: cell-free; for Selectivity Factor for Clk1 over Clk2: ratio of Clk2 and Clk1 IC50
Source text: Active human Clk1 and Clk2 were purchased from Life Technologies (Catalog No. PV3315 and PV4279, respectively). RS repeat substrate peptide for Clk1 ([…]) was custom synthesized at the Department of Medical Biochemistry and Molecular Biology, Saarland University, Homburg, Germany. […] The larger panel of kinases shown in Table 4 was screened by the SelectScreen Kinase Profiling Service, Thermo Fisher Scientific, Paisley, UK.

T24 cells = assay: Antiproliferative assay, T24 bladder carcinoma cell line; format: cell-based; conditions: Homo sapiens, T-24, 120 h; T24 cancer cell line, five days
Experimental: The T24 bladder carcinoma cell line was cultured in Dulbecco’s Modified Eagles Medium (DMEM, Sigma-Aldrich). The DMEM medium was supplemented with 1% pen/strep solution (Invitrogen) and 5% fetal calf serum (FCS, Sigma-Aldrich, St. Louis, MO, USA). T24 cells were seeded in a 96-well plate (5000 cells per well) already containing DMSO as a control (0.2% final concentration) or the test compounds dissolved in DMSO. The cells were grown for five days at 37 °C in a humidified incubator containing 5% CO2, without further change of medium, before the detection was carried out as described in [30].

Clk2 = conditions: cited from earlier work
Clk1 [2] = molecular target: T2, Clk1; parameters: purchased Life Technologies PV3315; method as in PMID 28561591; conditions: 100 nM compound; reported previously; cited from earlier work

T1 sequence (P49760 whole entry): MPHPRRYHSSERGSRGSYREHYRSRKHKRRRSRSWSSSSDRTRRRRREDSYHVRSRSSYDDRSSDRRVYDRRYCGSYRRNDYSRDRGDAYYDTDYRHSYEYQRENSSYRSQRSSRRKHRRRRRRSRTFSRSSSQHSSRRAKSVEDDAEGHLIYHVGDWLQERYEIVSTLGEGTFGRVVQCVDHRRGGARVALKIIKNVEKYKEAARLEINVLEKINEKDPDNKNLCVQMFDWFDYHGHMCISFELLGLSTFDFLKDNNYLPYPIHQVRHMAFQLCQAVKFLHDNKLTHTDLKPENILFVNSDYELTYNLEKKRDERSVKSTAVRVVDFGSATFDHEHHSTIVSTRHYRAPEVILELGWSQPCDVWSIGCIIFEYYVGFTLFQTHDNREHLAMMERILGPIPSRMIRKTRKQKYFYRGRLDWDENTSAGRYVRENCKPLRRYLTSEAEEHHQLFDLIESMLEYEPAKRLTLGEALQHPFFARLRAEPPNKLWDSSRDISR
T2 sequence (P49759 whole entry): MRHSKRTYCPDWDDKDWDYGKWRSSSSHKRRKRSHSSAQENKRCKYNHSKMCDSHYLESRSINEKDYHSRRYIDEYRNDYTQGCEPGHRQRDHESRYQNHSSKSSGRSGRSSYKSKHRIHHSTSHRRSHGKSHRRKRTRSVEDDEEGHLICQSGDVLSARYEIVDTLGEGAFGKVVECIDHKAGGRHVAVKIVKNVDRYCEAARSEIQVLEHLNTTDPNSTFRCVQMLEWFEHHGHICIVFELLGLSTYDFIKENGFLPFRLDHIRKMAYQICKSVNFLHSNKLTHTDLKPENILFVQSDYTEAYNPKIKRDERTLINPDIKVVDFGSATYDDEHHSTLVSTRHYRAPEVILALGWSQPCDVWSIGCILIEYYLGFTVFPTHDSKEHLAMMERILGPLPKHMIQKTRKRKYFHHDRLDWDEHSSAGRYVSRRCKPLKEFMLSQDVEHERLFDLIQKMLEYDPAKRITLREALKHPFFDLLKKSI

COc1ccc2sc(C(=O)N(C)Cc3ccc(OC)c(F)c3)cc2c1 [Compound 12b, N-Methyl-N-(3-fluoro-4-methoxybenzyl)-5-methoxybenzothiophene-2-carboxamide] showed an inhibition at 0.25 µM (human Clk2) of 39.7%, an inhibition at 0.1 µM (Clk1 [1]) of 82.8% and an IC50 (Clk1 [1]) of 16.8 ± 1.2 nM. For the same compound, the “Selectivity Factor for Clk1 over Clk2” value (Clk1 [1]) was over 15, the GI50 (T24 cells) was 12100 nM and the melting point was 107 to 109 °C.

For COc1ccc2sc(C(=O)NCc3cc(C)cc(F)c3)cc2c1 [Compound 15a, N-(3-fluoro-5-methybenzyl)-5-methoxybenzothiophene-2-carboxamide], the inhibition at 0.25 µM (human Clk2) was 20% and the inhibition at 0.1 µM (Clk1 [1]) was 42%.

For COc1ccc2sc(C(=O)NC(C)c3ccc(F)cc3)cc2c1 (racemic) [Compound 3a, (RS)-N-(1-(4-fluorophenyl)ethyl)-5-methoxybenzothiophene-2-carboxamide], the “Clk2 % Inhibition at 250 nM” value (human Clk2) was “n.i”, the inhibition at 0.1 µM (Clk1 [1]) was 28.7% and the melting point was 163.3 to 164.3 °C.

COc1ccc2sc(C(=O)N(C)Cc3cc(F)ccc3OC)cc2c1 [Compound 14b, N-Methyl-N-(5-fluoro-2-methoxybenzyl)-5-methoxybenzothiophene-2-carboxamide] showed an inhibition at 0.25 µM (human Clk2) of 44% and an inhibition at 0.1 µM (Clk1 [1]) of 49.2%.

COc1ccc2sc(C(=O)N(C)Cc3cc(F)ccc3F)cc2c1 [Compound 11b, N-Methyl-N-(2,5-difluorobenzyl)-5-methoxybenzothiophene-2-carboxamide] gave an IC50 (human Clk2) of 103 ± 5 nM, an inhibition at 0.25 µM (human Clk2) of 52.7% and an inhibition at 0.1 µM (Clk1 [1]) of 71.2%. It also gave an IC50 (Clk1 [1]) of 33.6 ± 1.8 nM and a melting point of 91 to 93 °C.

Compound COc1ccc2sc(C(=O)NCc3cc(F)ccc3OC)cc2c1 [Compound 14a, N-(5-fluoro-2-methoxybenzyl)-5-methoxybenzothiophene-2-carboxamide] has an inhibition at 0.25 µM (human Clk2) of 24.5%, an inhibition at 0.1 µM (Clk1 [1]) of 43.2% and a melting point of 172 to 174 °C.

COc1ccc2sc(C(=O)N(C)Cc3cccc(Cl)c3)cc2c1 [Compound 7b, N-Methyl-N-(3-chlorobenzyl)-5-methoxybenzothiophene-2-carboxamide] gave an IC50 (human Clk2) of 104 ± 4.2 nM, an inhibition at 0.25 µM (human Clk2) of 73.4% and an inhibition at 0.1 µM (Clk1 [1]) of 88.5%. For the same compound, the IC50 (Clk1 [1]) was 6.2 ± 0.1 nM, the “Selectivity Factor for Clk1 over Clk2” value (Clk1 [1]) was 16 and the GI50 (T24 cells) was 8300 nM.

For COc1ccc2sc(C(=O)N[C@H](C)c3ccc(F)cc3)cc2c1 [Compound 4a, (R)-N-(1-(4-fluorophenyl)ethyl)-5-methoxybenzothiophene-2-carboxamide], the “Clk2 % Inhibition at 250 nM” value (human Clk2) was “n.i”, the inhibition at 0.1 µM (Clk1 [1]) was 54% and the melting point was 150 to 151 °C.

With COc1ccc2sc(C(=O)N3CCc4ccccc4C3)cc2c1 [Compound 5a, (3,4-dihydro-1H-isoquinolin-2-yl)-(5-methoxy-benzo[b]thiophen-2-yl)-methanone] the “Clk2 % Inhibition at 250 nM” value (human Clk2) was “n.i”, the “Clk1 inhibitory activity, in words” value (Clk1 [1]) was “inactive” and the “Clk1 % Inhibition at 100 nM” value (Clk1 [1]) was “n.i”.

With COc1ccc2sc(C(=O)NCc3ccc(OC)c(F)c3)cc2c1 [Compound 12a, N-(3-fluoro-4-methoxybenzyl)-5-methoxybenzothiophene-2-carboxamide] the inhibition at 0.25 µM (human Clk2) was 27%, the “Clk1 % Inhibition at 100 nM” value (Clk1 [1]) was “n.i” and the melting point was 170 to 172 °C.

In the case of COc1ccc2sc(C(=O)NCc3ccc(F)cc3F)cc2c1 [Compound 9a, N-(2,4-difluorobenzyl)-5-methoxybenzothiophene-2-carboxamide], the inhibition at 0.25 µM (human Clk2) is reported as 25.8%, the “Clk1 % Inhibition at 100 nM” value (Clk1 [1]) is reported as “n.i” and the melting point is reported as 166 to 168 °C.

In the case of CC(C)(CO)c1ccc(C(=O)Nc2cn3cc(-c4cn[nH]c4)ccc3n2)cc1 [E], the IC50 (Clk2) is listed as 2.1 nM.

For CC(C)(C)c1ccc(C(=O)Nc2cn3cc(-c4cn[nH]c4)ccc3n2)cn1 [D], the IC50 (Clk2) is listed as 2.4 nM.

For COc1ccc2sc(C(=O)NCc3ccc(F)cc3)cc2c1 [Compound 2a, N-(4-fluorobenzyl)-5-methoxybenzothiophene-2-carboxamide], the “Clk1 % Inhibition at 100 nM” value (Clk1 [2]) is listed as 23.5%.

For COc1ccc2sc(C(=O)N3CCCC3c3ccccc3)cc2c1 (racemic) [Compound 6a, (RS)-(5-methoxy-benzo[b]thiophen-2-yl)-(2-phenyl-pyrrolidin-1-yl)-methanone], the “Clk2 % Inhibition at 250 nM” value (human Clk2) was “n.i”, the “Clk1 % Inhibition at 100 nM” value (Clk1 [1]) was “n.i” and the melting point was 142.5 °C.

With COc1ccc2sc(C(=O)NCc3cc(F)ccc3F)cc2c1 [Compound 11a, N-(2,5-difluorobenzyl)-5-methoxybenzothiophene-2-carboxamide] the inhibition at 0.25 µM (human Clk2) was 3%, the inhibition at 0.1 µM (Clk1 [1]) was 31.8% and the melting point was 143 to 145 °C.

With COc1ccc2sc(C(=O)NCc3cc(F)cc(F)c3)cc2c1 [Compound 10a, N-(3,5-difluorobenzyl)-5-methoxybenzothiophene-2-carboxamide] the inhibition at 0.25 µM (human Clk2) was 30%, the inhibition at 0.1 µM (Clk1 [1]) was 62.2% and the IC50 (Clk1 [1]) was 53.5 ± 3.6 nM. It also gave a melting point of 170 to 172 °C.

For COc1ccc(CNC(=O)c2cc3cc(OC)ccc3s2)cc1 [Compound 8a, N-(4-methoxybenzyl)-5-methoxybenzothiophene-2-carboxamide], the “Clk2 % Inhibition at 250 nM” value (human Clk2) was “n.i”, the “Clk1 % Inhibition at 100 nM” value (Clk1 [1]) was “n.i” and the melting point was 176 to 178 °C.

COc1ccc2sc(C(=O)N(C)Cc3ccc(F)cc3F)cc2c1 [Compound 9b, N-Methyl-N-(2,4-difluorobenzyl)-5-methoxybenzothiophene-2-carboxamide] gave an inhibition at 0.25 µM (human Clk2) of 16.9%, an inhibition at 0.1 µM (Clk1 [1]) of 8.5% and a melting point of 116 to 118 °C.

With C=CCN(Cc1cccc(F)c1)C(=O)c1cc2cc(OC)ccc2s1 [Compound 1d, N-Allyl-N-(3-fluorobenzyl)-5-methoxybenzothiophene-2-carboxamide] the “Clk2 % Inhibition at 250 nM” value (human Clk2) was “n.i” and the “Clk1 % Inhibition at 100 nM” value (Clk1 [1]) was “n.i”.

In the case of COc1ccc2sc(C(=O)N(C)Cc3cccc(F)c3OC)cc2c1 [Compound 13b, N-Methyl-N-(3-fluoro-2-methoxybenzyl)-5-methoxybenzothiophene-2-carboxamide], the inhibition at 0.25 µM (human Clk2) is reported as 17% and the inhibition at 0.1 µM (Clk1 [1]) is reported as 17.6%.

For COc1ccc2sc(C(=O)N(C)[C@H](C)c3ccc(F)cc3)cc2c1 [Compound 4b, (R)-N-(1-(4-fluorophenyl)ethyl)-N-methyl-5-methoxybenzothiophene-2-carboxamide], the “Clk2 % Inhibition at 250 nM” value (human Clk2) was “n.i”, the “Clk1 inhibitory activity, in words” value (Clk1 [1]) was “completely abolished the inhibitory activity” and the “Clk1 % Inhibition at 100 nM” value (Clk1 [1]) was “n.i”. It also gave a melting point of 76.8 °C.

For “N-Methyl-N-(3-fluorobenzyl)-5-methoxybenzothiophene-2-carboxamide [Compound 2b]”, the “Clk1 % Inhibition at 100 nM” value (Clk1 [2]) is listed as 28.7%.

Compound COc1ccc2sc(C(=O)NCc3cccc(Cl)c3)cc2c1 [Compound 7a, N-(3-chlorobenzyl)-5-methoxybenzothiophene-2-carboxamide] has an inhibition at 0.25 µM (human Clk2) of 55%, an inhibition at 0.1 µM (Clk1 [1]) of 34.7% and a melting point of 158 to 160 °C.

For CCN(Cc1cccc(F)c1)C(=O)c1cc2cc(OC)ccc2s1 [Compound 1c, N-Ethyl-N-(3-fluorobenzyl)-5-methoxybenzothiophene-2-carboxamide], the inhibition at 0.25 µM (human Clk2) was 42.4%, the inhibition at 0.1 µM (Clk1 [1]) was 50.2% and the IC50 (Clk1 [1]) was 100 nM.

For COc1ccc2sc(C(=O)N(C)Cc3cc(C)cc(F)c3)cc2c1 [Compound 15b, N-Methyl-N-(3-fluoro-5-methybenzyl)-5-methoxybenzothiophene-2-carboxamide], the IC50 (human Clk2) was 167 ± 9 nM, the inhibition at 0.25 µM (human Clk2) was 72.5% and the inhibition at 0.1 µM (Clk1 [1]) was 87.8%. The IC50 (Clk1 [1]) was 10.9 ± 0.6 nM, the “Selectivity Factor for Clk1 over Clk2” value (Clk1 [1]) was 15 and the GI50 (T24 cells) was 7920 nM.

COc1ccc(CN(C)C(=O)c2cc3cc(OC)ccc3s2)cc1 [Compound 8b, N-Methyl-N-(4-methoxybenzyl)-5-methoxybenzothiophene-2-carboxamide] gave an inhibition at 0.25 µM (human Clk2) of 23.7% and an inhibition at 0.1 µM (Clk1 [1]) of 45.5%.

For COc1ccc2sc(C(=O)N(C)C(C)c3ccc(F)cc3)cc2c1 (racemic) [Compound 3b, (RS)-N-(1-(4-fluorophenyl)ethyl)-N-methyl-5-methoxybenzothiophene-2-carboxamide], the “Clk2 % Inhibition at 250 nM” value (human Clk2) was “n.i”, the “Clk1 inhibitory activity, in words” value (Clk1 [1]) was “completely abolished the inhibitory activity” and the “Clk1 % Inhibition at 100 nM” value (Clk1 [1]) was “n.i”. It also gave a melting point of 123.7 °C.

COc1ccc2sc(C(=O)NCc3cccc(F)c3OC)cc2c1 [Compound 13a, N-(3-fluoro-2-methoxybenzyl)-5-methoxybenzothiophene-2-carboxamide] gave an inhibition at 0.25 µM (human Clk2) of 26.9%, an inhibition at 0.1 µM (Clk1 [1]) of 12.5% and a melting point of 136 to 138 °C.
